Experimental data taken from patent publication US11415579B2, “Assay for measuring a rate of reaction between a target and a ligand candidate” (Imperial College Innovations Ltd., priority 2016, dated 2022).

Columns and labels:
[1] = target: T1, Cdk2(C177A, F80C) (Homo sapiens, UniProt P24941, C177A/F80C); test: Kinetic thiol consumption assay with Cdk2 mutant F80C, incl. kobs versus concentration (Kd, k2); format: binding; parameters: key to Rate enhancement, Cdk2 F80C: Cdk2 rate constant divided by model-thiol rate constant; settings: additional mutation C177A; for Rate constant with Cdk2 F80C: Protein: Cdk2, cysteine position F80C, in h^-1
T1 construct: poly-histidine; made in house; host or cells: E. coli
Outline: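 His-tagged Cdk2(C177A/F80C) from E. coli or model thiol, 5 μM in degassed phosphate buffer pH 8 with TCEP beads, reacted with acrylamide ligands; fluorescence (ex/em 380/470 nm) normalized to DMSO control and fitted to first-order decay for kobs. Kd and k2 obtained from hyperbolic fit of kobs versus ligand concentration.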

[2] = Kinetic thiol consumption assay with model thiol glutathione; format: physicochemical; parameters: Rate constant with glutathione (k(GSH)): unit not given here; settings: for Rate constant with glutathione (k(GSH)): 500 μM ligand, 5 μM thiol, phosphate buffer pH 8; for Rate constant with Glutathione: Protein: Glutathione, cysteine position NA, in h-1
Outline: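 First, 5 μM glutathione in degassed phosphate buffer (pH 8) receives immobilized TCEP beads (2% v/v). Then acrylamide is added and plates incubate 1 h at room temperature. Finally, fluorescence (380/470 nm) is normalized and fitted to first-order decay for rate constants.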

[3] = target: T2, Cdk2(R122C) (C177A) (Homo sapiens, UniProt P24941, C177A/R122C); test: Kinetic thiol consumption assay with Cdk2 mutant R122C; format: binding; parameters: key to Rate enhancement, Cdk2 R122C: rate constant with Cdk2 ÷ rate constant with model thiol (fold); settings: additional mutation C177A; for Rate constant with Cdk2 R122C: Protein: Cdk2, cysteine position R122C, in h-1
T2 construct: poly-histidine; made in house; host or cells: E. coli
Outline: (§1)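 Thiol consumption was monitored kinetically using 5 μM Cdk2 (C177A plus one introduced cysteine) in degassed phosphate buffer at pH 8 with TCEP beads. Plates were kept 1 h at room temperature before fluorescence reading, and rate constants came from exponential decay fitting.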

[4] = target: T3, Cdk2(T182C) (C177A) (Homo sapiens, UniProt P24941, C177A/T182C); test: Kinetic thiol consumption assay with Cdk2 mutant T182C; format: binding; parameters: key to Rate enhancement, Cdk2 T182C: rate constant with Cdk2 ÷ rate constant with model thiol (fold); settings: additional mutation C177A; for Rate constant with Cdk2 T182C: Protein: Cdk2, cysteine position T182C, in h^-1
T3 construct: poly-histidine; made in house; host or cells: E. coli
Outline: as §1

[5] = target: T4, Cdk2[C177A, F80C, K278C] (Homo sapiens, UniProt P24941, C177A/F80C/K278C); test: Kinetic thiol consumption assay with mutant Cdk2 as model thiol; format: binding; parameters: unit not given here; settings: 500 μM ligand, 5 μM thiol, phosphate buffer pH 8
T4 construct: poly-histidine; made in house; host or cells: E. coli
Outline: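 First-order rate constants were derived by exponential-decay fitting of DMSO/thiol-normalized fluorescence (380/470 nm) over time at room temperature. Thiol was 5 μM E. coli-expressed His-tagged Cdk2 mutant C177A/F80C/K278C in degassed pH 8 phosphate buffer containing 2% v/v TCEP beads.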

[6] = target: T5, Cdk2(H71C) (C177A) (Homo sapiens, UniProt P24941, C177A/H71C); test: Kinetic thiol consumption assay with Cdk2 mutant H71C; format: binding; parameters: key to Rate enhancement, Cdk2 H71C: rate constant with Cdk2 ÷ rate constant with model thiol (fold); settings: additional mutation C177A
T5 construct: poly-histidine; made in house; host or cells: E. coli
Outline: as §1

[7] = target: T6, Cdk2(N272C) (C177A) (Homo sapiens, UniProt P24941, C177A/N272C); test: Kinetic thiol consumption assay with Cdk2 mutant N272C; format: binding; parameters: key to Rate enhancement, Cdk2 N272: rate constant with Cdk2 ÷ rate constant with model thiol (fold); settings: for Rate enhancement, Cdk2 N272: Cdk2 N272, additional mutation C177A; for Rate constant with Cdk2 N272C: Protein: Cdk2, cysteine position N272C, additional mutation C177A, in h^-1
T6 construct: poly-histidine; made in house; host or cells: E. coli
Outline: as §1

[8] = target: T7, Cdk2(S181C) (C177A) (Homo sapiens, UniProt P24941, C177A/S181C); test: Kinetic thiol consumption assay with Cdk2 mutant S181C; format: binding; parameters: key to Rate enhancement, Cdk2 S181C: rate constant with Cdk2 ÷ rate constant with model thiol (fold); settings: additional mutation C177A; for Rate constant with Cdk2 S181C: Protein: Cdk2, cysteine position S181C, in h^-1
T7 construct: poly-histidine; made in house; host or cells: E. coli
Outline: as §1

[9] = target: T8, human cyclin-dependent kinase 2 (Cdk2) (Homo sapiens, UniProt P24941); test: Kinetic thiol consumption assay with wild type Cdk2 (C177); format: binding; parameters: key to Rate enhancement, Cdk2 WT: k(Cdk2) divided by k(model thiol); Rate constant with Cdk2 (k(Cdk2)): unit not given here; settings: for Rate constant with Cdk2 (k(Cdk2)): 500 μM ligand, 5 μM thiol, phosphate buffer pH 8; for Rate enhancement, Cdk2 WT: no additional mutations; for Rate constant with Cdk2 WT: Protein: Cdk2, cysteine position WT, in h^-1; for k(Cdk2)/k(Cdk2_mut) rate enhancement: model thiol Cdk2[C177A, F80C, K278C]; for k(Cdk2)/k(GSH) rate enhancement: model thiol glutathione
T8 construct: poly-histidine; made in house; host or cells: E. coli
Outline: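 His-tagged human Cdk2 from E. coli (sole surface cysteine C177) or a model thiol, each 5 μM in degassed phosphate buffer pH 8 with immobilized TCEP, reacted with acrylamides at room temperature. Fluorescence (ex 380/em 470) normalized to DMSO/thiol control over time; first-order rate constants, Cdk2 rate divided by model-thiol rate.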

[10] = target: T9, Cdk2(S276C) (C177A) (Homo sapiens, UniProt P24941, C177A/S276C); test: Kinetic thiol consumption assay with Cdk2 mutant S276C; format: binding; parameters: key to Rate enhancement, Cdk2 S276C: rate constant with Cdk2 ÷ rate constant with model thiol (fold); settings: additional mutation C177A
T9 construct: poly-histidine; made in house; host or cells: E. coli
Outline: as §1

C=CC(=O)N1CCC2(CCCN(Cc3ccccc3)C2)C1 (stereo not drawn) [CA-141]
Rate enhancement, Cdk2 F80C [1]: 0.09517 | Rate constant with Cdk2 F80C [1]: 0.001715 | Rate constant with glutathione (k(GSH)) [2]: 0.01384 | Rate constant with Glutathione [2]: 0.01802 | Rate enhancement, Cdk2 R122C [3]: 0.2386 | Rate constant with Cdk2 R122C [3]: 0.0043 | Rate enhancement, Cdk2 T182C [4]: 0.5125 | Rate constant with Cdk2 T182C [4]: 0.009235 | Rate constant with Cdk2[C177A, F80C, K278C] (k(Cdk2_mut)) [5]: 0.00257 | Rate enhancement, Cdk2 H71C [6]: 0 | Rate enhancement, Cdk2 N272 [7]: 0.2507 | Rate constant with Cdk2 N272C [7]: 0.004517 | Rate enhancement, Cdk2 S181C [8]: 0.1935 | Rate constant with Cdk2 S181C [8]: 0.003487 | Rate constant with Cdk2 (k(Cdk2)) [9]: 0.00693 | Rate enhancement, Cdk2 WT [9]: 0.3847 | Rate constant with Cdk2 WT [9]: 0.006933 | k(Cdk2)/k(Cdk2_mut) rate enhancement [9]: 2.693 | k(Cdk2)/k(GSH) rate enhancement [9]: 0.5009 | Rate enhancement, Cdk2 S276C [10]: 0

C=CC(=O)Nc1nc2cc3c(cc2s1)OC(F)(F)O3 [CA-142]
Rate enhancement, Cdk2 F80C [1]: 9.635 | Rate constant with Cdk2 F80C [1]: 0.1954 | Rate constant with glutathione (k(GSH)) [2]: 0.02031 | Rate constant with Glutathione [2]: 0.02028 | Rate enhancement, Cdk2 R122C [3]: 0.1319 | Rate constant with Cdk2 R122C [3]: 0.002674 | Rate enhancement, Cdk2 T182C [4]: 12.86 | Rate constant with Cdk2 T182C [4]: 0.2609 | Rate constant with Cdk2[C177A, F80C, K278C] (k(Cdk2_mut)) [5]: 0.02268 | Rate enhancement, Cdk2 H71C [6]: 0.1797 | Rate constant with Cdk2 H71C ([6]; Protein: Cdk2, cysteine position H71C, in h^-1): 0.003644 | Rate enhancement, Cdk2 N272 [7]: 0.3071 | Rate constant with Cdk2 N272C [7]: 0.006229 | Rate enhancement, Cdk2 S181C [8]: 0.4029 | Rate constant with Cdk2 S181C [8]: 0.00817 | Rate constant with Cdk2 (k(Cdk2)) [9]: 0.03086 | Rate enhancement, Cdk2 WT [9]: 1.522 | Rate constant with Cdk2 WT [9]: 0.03086 | k(Cdk2)/k(Cdk2_mut) rate enhancement [9]: 1.361 | k(Cdk2)/k(GSH) rate enhancement [9]: 1.519 | Rate enhancement, Cdk2 S276C [10]: 3.68 | Rate constant with Cdk2 S276C ([10]; Protein: Cdk2, cysteine position S276C, in h^-1): 0.07463
